Among the data in the NIST ThermoML archive (doi:10.1016/j.fluid.2009.01.011) are activity coefficient values, retold here.

± gives the expanded uncertainty stated by the source.

The data set is described as follows: activity coefficient (dimensionless); of the first substance listed, at infinite dilution; xn = mol fraction of the nth substance listed. The conditions noted are these: Liquid, Chromatography, x1 = 0.

With `c1ccsc1` [thiophene] + CCCC[N+]1(C)CCCC1.O=S(=O)([O-])C(F)(F)F, the activity coefficient by setting is: (298.15 K) 1.02 ± 0.04; (308.15 K) 1.04 ± 0.04; (318.15 K) 1.06 ± 0.04; (328.15 K) 1.08 ± 0.04; (338.15 K) 1.1 ± 0.04; (348.15 K) 1.11 ± 0.04. Besides, the activity coefficient reads like this: (358.15 K) 1.13 ± 0.04; (368.15 K) 1.14 ± 0.04.
As to `CCCCCCCCCC` [decane] + CCCC[N+]1(C)CCCC1.O=S(=O)([O-])C(F)(F)F, the activity coefficient was found to be 195 ± 9 (298.15 K); 174 ± 8 (308.15 K); 157 ± 7 (318.15 K); 143 ± 6 (328.15 K); 130 ± 6 (338.15 K); 120 ± 5 (348.15 K). Moreover, the activity coefficient was found to be 110 ± 5 (358.15 K) and 101 ± 5 (368.15 K).
`C1CCCCCC1` [cycloheptane] + CCCC[N+]1(C)CCCC1.O=S(=O)([O-])C(F)(F)F: the activity coefficient was found to be 29.3 ± 1.3 (298.15 K); 27 ± 1.2 (308.15 K); 24.9 ± 1.1 (318.15 K); 23.1 ± 1 (328.15 K); 21.6 ± 1 (338.15 K); 20.1 ± 0.9 (348.15 K). The activity coefficient reads like this: (358.15 K) 18.9 ± 0.8; (368.15 K) 17.9 ± 0.8.
On to `C#CCCC` [1-pentyne] + CCCC[N+]1(C)CCCC1.O=S(=O)([O-])C(F)(F)F, for which the activity coefficient is, setting by setting: (298.15 K) 2.59 ± 0.11; (308.15 K) 2.66 ± 0.12; (318.15 K) 2.74 ± 0.12; (328.15 K) 2.82 ± 0.12; (338.15 K) 2.88 ± 0.13; (348.15 K) 2.95 ± 0.13. Further, the activity coefficient is, setting by setting: (358.15 K) 3.01 ± 0.13; (368.15 K) 3.08 ± 0.14.
On to `CCCCCCCCC` [nonane] + CCCC[N+]1(C)CCCC1.O=S(=O)([O-])C(F)(F)F, for which the activity coefficient came out at 135 ± 6 (298.15 K); 122 ± 5 (308.15 K); 111 ± 5 (318.15 K); 100 ± 5 (328.15 K); 92.4 ± 4.1 (338.15 K); 85.2 ± 3.8 (348.15 K). In addition, the activity coefficient is, setting by setting: (358.15 K) 78.9 ± 3.5; (368.15 K) 73.3 ± 3.3.
Regarding `CCCCCCCC` [octane] + CCCC[N+]1(C)CCCC1.O=S(=O)([O-])C(F)(F)F, the activity coefficient reads like this: (298.15 K) 95.2 ± 4.3; (308.15 K) 86.9 ± 3.9; (318.15 K) 79.4 ± 3.5; (328.15 K) 73.1 ± 3.3; (338.15 K) 67.2 ± 3; (348.15 K) 62.9 ± 2.8. The activity coefficient is, setting by setting: (358.15 K) 58.4 ± 2.6; (368.15 K) 54.4 ± 2.4.
Turning to `Cc1ccccc1C` [1,2-dimethylbenzene] + CCCC[N+]1(C)CCCC1.O=S(=O)([O-])C(F)(F)F, the activity coefficient runs as follows: (308.15 K) 2.91 ± 0.13; (318.15 K) 2.93 ± 0.13; (328.15 K) 2.95 ± 0.13; (338.15 K) 2.97 ± 0.13; (348.15 K) 2.99 ± 0.13; (358.15 K) 3.01 ± 0.13. Also, the activity coefficient (368.15 K) came to 3.03 ± 0.13.
For `Cc1ccccc1` [toluene] + CCCC[N+]1(C)CCCC1.O=S(=O)([O-])C(F)(F)F, the activity coefficient reads like this: (298.15 K) 2.16 ± 0.09; (308.15 K) 2.19 ± 0.1; (318.15 K) 2.22 ± 0.1; (328.15 K) 2.25 ± 0.1; (338.15 K) 2.27 ± 0.1; (348.15 K) 2.3 ± 0.1. Besides, the activity coefficient (358.15 K) is 2.32 ± 0.1 and the activity coefficient (368.15 K) is 2.35 ± 0.1.
For the compound `O` [water] + CCCC[N+]1(C)CCCC1.O=S(=O)([O-])C(F)(F)F, the activity coefficient by setting is: (318.15 K) 0.865 ± 0.032; (328.15 K) 0.83 ± 0.032; (338.15 K) 0.794 ± 0.031; (348.15 K) 0.765 ± 0.031; (358.15 K) 0.739 ± 0.03; (368.15 K) 0.712 ± 0.03.
